# Data from article PMC12527922, “Cocaine chemogenetics blunts drug-seeking by synthetic physiology” (Nature, 2025).
# “And” between values parts separate entries of the source, which are not always exact repeats. Equal entries are not always repeated. Where two headings read alike, the source gives them in different places.
# Legend:
# [1] = test system: coca-5HT3 in cultured hippocampal neurons; experiment: Current-clamp of cultured hippocampal neurons expressing coca-5HT3; type: cell-based, rat; conditions: for DmV MEAN: coca-5HT3-IRES-EGFP, MEAN of cells
# coca-5HT3 = coca-5HT3 (Homo sapiens, UniProt P36544, G175K/L141G/Y210F/Y217F); experiment: [^3H]ASEM displacement, membranes of HEK293 cells expressing coca-5HT3; type: binding, human α7 nAChR LBD, mouse 5HT3 IPD; conditions: for [3H]ASEM binding, normalised dose-response (DR replicates): HotNM 2.000
# Procedure: Cells were suspended in Tris-HCl 50 mM pH 7.4 supplemented with protease inhibitor cocktail (1:100, Sigma-Aldrich). HEK293 cells were disrupted with a 6 Polytron homogenizer (Kinematica). Homogenates were centrifuged at 48,000g (50 min, 4 °C) and washed twice in the same conditions to isolate the membrane fraction. Protein was quantified using the bicinchoninic acid method (Pierce). […] Free and membrane-bound radioligands were separated by rapid filtration of 500 μl aliquots in a 96-well plate harvester (Brandel) and washed with 2 ml of ice-cold Tris-HCl buffer. Microscint-20 scintillation liquid (65 μl per well, PerkinElmer) was added to the filter plates, plates were incubated overnight at room temperature and radioactivity counts were determined in the MicroBeta2 plate counter (PerkinElmer) with an efficiency of 41%. Two-site competition curves were fitted using Prism 10 (GraphPad). Ki values were calculated using the Cheng–Prusoff equation.
# [2] = test system: hippocampal neurons expressing GFP; experiment: Current-clamp of control cultured hippocampal neurons expressing GFP; type: cell-based, rat; conditions: for DmV MEAN: IRES-EGFP control, MEAN of cells
# [3] = test system: coca-GlyR in cultured hippocampal neurons; experiment: Current-clamp of cultured hippocampal neurons expressing coca-GlyR; type: cell-based, rat
# [4] = estimated from self-administration; cited from earlier work
# DAT = conditions: endogenous target; cited from earlier work
# control rats = experiment: Cocaine IVSA (intravenous self-administration), control rats; type: in vivo, rat
# [5] = molecular target: α7–5HT3 mutant chimeric channels (Homo sapiens, UniProt P36544, L141S); experiment: cell-based; type: cell-based, human α7 nAChR LBD, mouse 5HT3 IPD
# [6] = molecular target: α7–5HT3 mutant chimeric channels (Homo sapiens, UniProt P36544, Q139D); experiment: cell-based; type: cell-based, human α7 nAChR LBD, mouse 5HT3 IPD
# [7] = molecular target: α7–5HT3 mutant chimeric channels (Homo sapiens, UniProt P36544, S170T); experiment: cell-based; type: cell-based, human α7 nAChR LBD, mouse 5HT3 IPD
# [8] = molecular target: α7–5HT3 mutant chimeric channels (Homo sapiens, UniProt P36544, S172L); experiment: cell-based; type: cell-based, human α7 nAChR LBD, mouse 5HT3 IPD
# [9] = molecular target: α7–5HT3 mutant chimeric channels (Homo sapiens, UniProt P36544, Q139M); experiment: cell-based; type: cell-based, human α7 nAChR LBD, mouse 5HT3 IPD
# [10] = molecular target: α7–5HT3 mutant chimeric channels (Homo sapiens, UniProt P36544, Q139V); experiment: cell-based; type: cell-based, human α7 nAChR LBD, mouse 5HT3 IPD
# [11] = molecular target: α7–5HT3 mutant chimeric channels (Homo sapiens, UniProt P36544, S170Y); experiment: cell-based; type: cell-based, human α7 nAChR LBD, mouse 5HT3 IPD
# [12] = molecular target: α7–5HT3 mutant chimeric channels (Homo sapiens, UniProt P36544, Q79A); experiment: cell-based; type: cell-based, human α7 nAChR LBD, mouse 5HT3 IPD
# [13] = molecular target: α7–5HT3 mutant chimeric channels (Homo sapiens, UniProt P36544, Q139Y); experiment: cell-based; type: cell-based, human α7 nAChR LBD, mouse 5HT3 IPD
# [14] = Two sites - Fit Ki, best-fit value per replicate
# [15] = Two sites - Fit Ki, best-fit value, single experiment
# Sequence of coca-5HT3 (P23979 242-489): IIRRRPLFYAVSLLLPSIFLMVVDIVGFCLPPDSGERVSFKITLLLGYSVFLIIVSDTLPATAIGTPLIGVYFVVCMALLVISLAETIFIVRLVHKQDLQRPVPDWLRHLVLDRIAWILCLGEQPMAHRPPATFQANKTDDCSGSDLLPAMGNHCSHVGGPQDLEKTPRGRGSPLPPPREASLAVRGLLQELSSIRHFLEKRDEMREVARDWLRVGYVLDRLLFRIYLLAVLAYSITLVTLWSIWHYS
# Sequence of coca-5HT3 (P36544 23-224 L141G/G175K/Y210F/Y217F): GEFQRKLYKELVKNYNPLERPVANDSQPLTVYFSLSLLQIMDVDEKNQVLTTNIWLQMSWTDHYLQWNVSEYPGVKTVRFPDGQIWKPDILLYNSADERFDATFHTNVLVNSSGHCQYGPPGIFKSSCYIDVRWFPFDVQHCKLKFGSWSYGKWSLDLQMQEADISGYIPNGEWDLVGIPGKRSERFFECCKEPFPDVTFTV
# Sequence of α7–5HT3 mutant chimeric channels (Homo sapiens, UniProt P36544, Q139V) (P23979 242-489): as the sequence (P23979 242-489) above
# Sequence of α7–5HT3 mutant chimeric channels (Homo sapiens, UniProt P36544, Q139V) (P36544 23-224 Q139V): as the sequence (P36544 23-224 L141G/G175K/Y210F/Y217F) above, with Q117V, G119L, K153G, F188Y, F195Y counted along it
# Sequence of α7–5HT3 mutant chimeric channels (Homo sapiens, UniProt P36544, Q79A) (P23979 242-489): as the sequence (P23979 242-489) above
# Sequence of α7–5HT3 mutant chimeric channels (Homo sapiens, UniProt P36544, Q79A) (P36544 23-224 Q79A): as the sequence (P36544 23-224 L141G/G175K/Y210F/Y217F) above, with Q57A, G119L, K153G, F188Y, F195Y counted along it
# Sequence of α7–5HT3 mutant chimeric channels (Homo sapiens, UniProt P36544, Q139D) (P23979 242-489): as the sequence (P23979 242-489) above
# Sequence of α7–5HT3 mutant chimeric channels (Homo sapiens, UniProt P36544, Q139D) (P36544 23-224 Q139D): as the sequence (P36544 23-224 L141G/G175K/Y210F/Y217F) above, with Q117D, G119L, K153G, F188Y, F195Y counted along it
# Sequence of α7–5HT3 mutant chimeric channels (Homo sapiens, UniProt P36544, L141S) (P36544 23-224 L141S): as the sequence (P36544 23-224 L141G/G175K/Y210F/Y217F) above, with G119S, K153G, F188Y, F195Y counted along it
# Sequence of α7–5HT3 mutant chimeric channels (Homo sapiens, UniProt P36544, L141S) (P23979 242-489, further chain): as the sequence (P23979 242-489) above
# Sequence of α7–5HT3 mutant chimeric channels (Homo sapiens, UniProt P36544, Q139Y) (P36544 23-224 Q139Y): as the sequence (P36544 23-224 L141G/G175K/Y210F/Y217F) above, with Q117Y, G119L, K153G, F188Y, F195Y counted along it
# Sequence of α7–5HT3 mutant chimeric channels (Homo sapiens, UniProt P36544, Q139Y) (P23979 242-489, further chain): as the sequence (P23979 242-489) above
# Sequence of α7–5HT3 mutant chimeric channels (Homo sapiens, UniProt P36544, Q139M) (P36544 23-224 Q139M): as the sequence (P36544 23-224 L141G/G175K/Y210F/Y217F) above, with Q117M, G119L, K153G, F188Y, F195Y counted along it
# Sequence of α7–5HT3 mutant chimeric channels (Homo sapiens, UniProt P36544, Q139M) (P23979 242-489, further chain): as the sequence (P23979 242-489) above
# Sequence of α7–5HT3 mutant chimeric channels (Homo sapiens, UniProt P36544, S170T) (P36544 23-224 S170T): as the sequence (P36544 23-224 L141G/G175K/Y210F/Y217F) above, with G119L, S148T, K153G, F188Y, F195Y counted along it
# Sequence of α7–5HT3 mutant chimeric channels (Homo sapiens, UniProt P36544, S170T) (P23979 242-489, further chain): as the sequence (P23979 242-489) above
# Sequence of α7–5HT3 mutant chimeric channels (Homo sapiens, UniProt P36544, S170Y) (P23979 242-489): as above
# Sequence of α7–5HT3 mutant chimeric channels (Homo sapiens, UniProt P36544, S170Y) (P36544 23-224 S170Y): as the sequence (P36544 23-224 L141G/G175K/Y210F/Y217F) above, with G119L, S148Y, K153G, F188Y, F195Y counted along it
# Sequence of α7–5HT3 mutant chimeric channels (Homo sapiens, UniProt P36544, S172L) (P36544 23-224 S172L): as the sequence (P36544 23-224 L141G/G175K/Y210F/Y217F) above, with G119L, S150L, K153G, F188Y, F195Y counted along it
# Sequence of α7–5HT3 mutant chimeric channels (Homo sapiens, UniProt P36544, S172L) (P23979 242-489, further chain): as the sequence (P23979 242-489) above
smiles,measurement,setting,value
COC(=O)[C@H]1[C@@H](OC(=O)c2ccccc2)C[C@@H]2CC[C@H]1N2C [cocaine],current required to elicit an action potential (rheobase),[1]; 3 µM cocaine,reduced
same,DmV MEAN,[1]; cocaine 0.1 uM,0.3818 mV
same,DmV MEAN,[1]; cocaine 0.3 uM,1.236 mV
same,DmV MEAN,[1]; cocaine 1 uM,4.155 mV
same,DmV MEAN,[1]; cocaine 3 uM,11.3545 mV
same,DmV MEAN,[1]; cocaine 10 uM,12.55 mV
same,neuronal firing,[1]; cocaine 1–3 µM,increased
same,depolarization of neurons expressing coca-5HT3,[1]; current-clamp,depolarized neurons in a dose-dependent manner
same,binding to coca-5HT3,coca-5HT3,biphasic manner
same,Ki,"coca-5HT3; KiHi MEAN, Two sites - Fit Ki, MEAN of replicates, high-affinity site, concentrations in log(M)",1.43e-11 M
same,Ki,"coca-5HT3; KiHi, Two sites - Fit Ki, best-fit value per replicate, high-affinity site, concentrations in log(M)",2.45e-11 M and 4.07e-12 M
same,Ki,"coca-5HT3; KiHi, Two sites - Fit Ki, best-fit value, single experiment",3.36e-09 M and 4.69e-10 M and 1.04e-09 M
same,Ki,"coca-5HT3; KiLo MEAN, Two sites - Fit Ki, MEAN of replicates, low-affinity site, concentrations in log(M)",8.42e-07 M
same,Ki,"coca-5HT3; KiLo, Two sites - Fit Ki, best-fit value per replicate, low-affinity site, concentrations in log(M)",1.34e-06 M and 3.42e-07 M
same,FractionHi MEAN,"coca-5HT3; Two sites - Fit Ki, MEAN of 3 experiments",0.4542
same,Ki,"coca-5HT3; Two sites - Fit Ki, MEAN of 3 experiments, read-out: KiHi MEAN",1.62e-09 M
same,Ki,"coca-5HT3; Two sites - Fit Ki, MEAN of 3 experiments, read-out: KiLo MEAN",1.05e-05 M
same,Bottom,coca-5HT3; [14],2.185 and 3.88
same,Top,coca-5HT3; [14],100.5 and 97.8
same,FractionHi,"coca-5HT3; Two sites - Fit Ki, best-fit value per replicate, fraction of high-affinity sites",0.3742 and 0.3845
same,logKiHi,"coca-5HT3; Two sites - Fit Ki, best-fit value per replicate, high-affinity site, concentrations in log(M), HotNM 2.000, HotKdNM 0.1500",-10.61 and -11.39
same,logKiLo,"coca-5HT3; Two sites - Fit Ki, best-fit value per replicate, low-affinity site, concentrations in log(M), HotNM 2.000, HotKdNM 0.1500",-5.872 and -6.466
same,FractionHi,coca-5HT3; [15],0.6584 and 0.3371 and 0.3672
same,Top,coca-5HT3; [15],99.93 and 93.31 and 95.95
same,FractionHi MEAN,"coca-5HT3; Two sites - Fit Ki, MEAN of replicates",0.3794
same,high-affinity binding sites,"coca-5HT3; biphasic curve, displacement of [^3H]ASEM 2 nM",45 ± 10%
same,"[3H]ASEM binding, normalised dose-response (DR replicates)",coca-5HT3; competitor log(M) -4,11.458 and 0
same,"[3H]ASEM binding remaining, single experiment",coca-5HT3; competitor log(M) -5,23.47 and 26.447 and 37.669
same,"[3H]ASEM binding, normalised dose-response (DR replicates)",coca-5HT3; competitor log(M) -5,47.775 and 41.228
same,"[3H]ASEM binding remaining, single experiment",coca-5HT3; competitor log(M) -5.5,17.557
same,"[3H]ASEM binding, normalised dose-response (DR replicates)",coca-5HT3; competitor log(M) -5.5,48.554 and 26.456
same,"[3H]ASEM binding remaining, single experiment",coca-5HT3; competitor log(M) -6,27.001
same,"[3H]ASEM binding, normalised dose-response (DR replicates)",coca-5HT3; competitor log(M) -6,57.625 and 37.983
same,"[3H]ASEM binding remaining, single experiment",coca-5HT3; competitor log(M) -6.5,30.205 and 53.107
same,"[3H]ASEM binding, normalised dose-response (DR replicates)",coca-5HT3; competitor log(M) -6.5,51.124 and 74.04
same,"[3H]ASEM binding remaining, single experiment",coca-5HT3; competitor log(M) -7,57.024 and 47.634
same,"[3H]ASEM binding, normalised dose-response (DR replicates)",coca-5HT3; competitor log(M) -7,70.9 and 74.174
same,"[3H]ASEM binding, normalised dose-response (DR replicates)",coca-5HT3; competitor log(M) -7.5,71.728
same,"[3H]ASEM binding remaining, single experiment",coca-5HT3; competitor log(M) -8,65.97 and 67.573 and 58.641
same,"[3H]ASEM binding, normalised dose-response (DR replicates)",coca-5HT3; competitor log(M) -8,67.385 and 47.743
same,"[3H]ASEM binding remaining, single experiment",coca-5HT3; competitor log(M) -8.5,74.698 and 69.889 and 68.057
same,"[3H]ASEM binding remaining, single experiment",coca-5HT3; competitor log(M) -9,100.179 and 77.048 and 83.003
same,"[3H]ASEM binding, normalised dose-response (DR replicates)",coca-5HT3; competitor log(M) -9,72.343 and 49.428
same,"[3H]ASEM binding remaining, single experiment",coca-5HT3; competitor log(M) -9.5,97.899 and 80.952 and 89.425
same,"[3H]ASEM binding remaining, single experiment",coca-5HT3; competitor log(M) -10,96.081 and 90.356 and 93.104
same,"[3H]ASEM binding, normalised dose-response (DR replicates)",coca-5HT3; competitor log(M) -10,79.023
same,"[3H]ASEM binding remaining, single experiment",coca-5HT3; competitor log(M) -10.5,106.622 and 85.323 and 92.652
same,"[3H]ASEM binding remaining, single experiment",coca-5HT3; competitor log(M) -11,94.021 and 93.563 and 93.105
same,"[3H]ASEM binding, normalised dose-response (DR replicates)",coca-5HT3; competitor log(M) -11,91.338
same,"[3H]ASEM binding remaining, single experiment",coca-5HT3; competitor log(M) -13,96.794 and 101.374 and 101.832
same,"[3H]ASEM binding, normalised dose-response (DR replicates)",coca-5HT3; competitor log(M) -13,100.546 and 98.09
same,Ki,"coca-5HT3; high-affinity inhibition constant (KiH), displacement of [^3H]ASEM 2 nM, two-site fit",1.6e-09 ± 9e-10 M
same,Ki,"coca-5HT3; logKiHi, Two sites - Fit Ki, best-fit value, single experiment",3.37e-09 M and 4.69e-10 M and 1.04e-09 M
same,Ki,"coca-5HT3; read-out: low-affinity inhibition constant (KiL), displacement of [^3H]ASEM 2 nM, two-site fit",1e-05 ± 7e-06 M
same,depolarization of control neurons,[2]; GFP control neurons,did not affect control neurons
same,DmV MEAN,[2]; cocaine 0.1 uM,-0.03 mV
same,DmV MEAN,[2]; cocaine 0.3 uM,-0.2411 mV
same,DmV MEAN,[2]; cocaine 1 uM,0.04889 mV
same,DmV MEAN,[2]; cocaine 3 uM,0.31 mV
same,DmV MEAN,[2]; cocaine 10 uM,-0.01556 mV
same,DmV MEAN,[2]; cocaine 30 uM,-0.4375 mV
same,rheobase,"[3]; coca-GlyR neurons, 10 uM, single cells",200 pA
same,firing in response to current injection,[3]; neurons with coca-GlyR,inhibited
same,membrane input resistance,[3]; neurons with coca-GlyR,dose-dependent reduction
same,rheobase,"[3]; neurons with coca-GlyR, cocaine 3 and 10 µM",increased
same,brain cocaine concentrations,[4],2.5 to 20 µM
same,range of cocaine affinities for DAT,DAT,0.23 to 2.0 µM
same,"Sheet 3g, Mean (per-rat counts at each dose)",control rats; Dose 0.0625,37.2
same,"Sheet 3h, Mean (sheet 3g count x dose, intake)",control rats; Dose 0.0625,2.325
same,"Sheet 3g, Mean (per-rat counts at each dose)",control rats; Dose 0.125,69.7333
same,"Sheet 3h, Mean (sheet 3g count x dose, intake)",control rats; Dose 0.125,8.717
same,"Sheet 3g, Mean (per-rat counts at each dose)",control rats; Dose 0.25,50.5385
same,"Sheet 3h, Mean (sheet 3g count x dose, intake)",control rats; Dose 0.25,12.6346
same,"Sheet 3g, Mean (per-rat counts at each dose)",control rats; Dose 0.5,27.6667
same,"Sheet 3h, Mean (sheet 3g count x dose, intake)",control rats; Dose 0.5,13.8333
same,"Sheet 3g, Mean (per-rat counts at each dose)",control rats; Dose 1,15
same,"Sheet 3h, Mean (sheet 3g count x dose, intake)",control rats; Dose 1,15
same,EC50,[5],> 30000 nM
same,EC50,"[5]; read-out: EC50 at α75HT3 L141S, sheet 1d, single determinations",> 30000 nM
same,EC50,[6],> 30000 nM
same,EC50,"[6]; read-out: EC50 at a7 5HT3 Q139D, Avg, sheet 1d, Avg",> 30000 nM
same,EC50,[7],> 30000 nM
same,EC50,[8],> 30000 nM
same,EC50,[9],> 30000 nM
same,EC50,"[9]; read-out: EC50 at a7 5HT3 Q139M, Avg, sheet 1d, Avg",> 30000 nM
same,EC50,[10],> 30000 nM
same,EC50,"[10]; read-out: EC50 at a7 5HT3 Q139V, Avg, sheet 1d, Avg",> 30000 nM
same,EC50,[11],> 30000 nM
same,EC50,[12],> 30000 nM
same,EC50,"[12]; read-out: EC50 at a7 5HT3 Q79A, sheet 1d, single determinations",> 30000 nM
same,EC50,[13],> 30000 nM
same,EC50,"[13]; read-out: EC50 at a7 5HT3 Q139Y, Avg, sheet 1d, Avg",> 30000 nM
